Laboratory results as given in patent US6403615B1, “2-Aryl-3-aroylbenzo {b} thiophenes useful for the treatment of estrogen deprivation syndrome” (Eli Lilly and Company, priority 1997, dated 2002).

Assays:
[1] = system: ovariectomized (OVX) rats; assay: Osteoporosis (bone mineral density) in ovariectomized rat model; assay type: in vivo, Sprague Dawley rats; settings: oral in 20% hydroxypropyl β-cyclodextrin, daily for 35 days, femur x-ray image analysis, tibia quantitative computed tomography
Description: Seventy-five day old female Sprague Dawley rats (weight range of 200g to 225 g) are obtained from Charles River Laboratories (Portage, Mich.). The animals are either bilaterally ovariectomized (OVX) or exposed to a Sham surgical procedure at Charles River Laboratories, and then shipped after one week. Upon arrival, they are housed in metal hanging cages in groups of 3 or 4 per cage and have ad libitum access to food (calcium content approximately 0.5%) and water for one week. Room temperature is maintained at 22.2°±1.7° C. with a minimum relative humidity of 40%. The photoperiod in the room is 12 hours light and 12 hours dark.
Following the General Procedure, infra, the rats are treated daily for 35 days (6 rats per treatment group) and sacrificed by carbon dioxide asphyxiation on the 36th day. The 35 day time period is sufficient to allow maximal reduction in bone density, measured as described herein. At the time of sacrifice, the uteri are removed, dissected free of extraneous tissue, and the fluid contents are expelled before determination of wet weight in order to confirm estrogen deficiency associated with complete ovariectomy. […]
The right femurs are excised and digitilized x-rays generated and analyzed by an image analysis program (NIH image) at the distal metaphysis. The proximal aspect of the tibiae from these animals are also scanned by quantitative computed tomography.

Q: Which “loss of bone mineral density” value [1] does the source give for `C#C[C@]1(O)CC[C@H]2[C@@H]3CCc4cc(O)ccc4[C@H]3CC[C@@]21C` [ethynyl estradiol, 17-α-ethynyl estradiol] here?
A: Its value is “a reduction in the loss of bone mineral density”.

Q: For `COc1ccc(-c2sc3cc(OC)ccc3c2C(=O)c2ccc(O)cc2)cc1` [Example 3, 2-(4-Methoxyphenyl)-3-(4-Hydroxybenzoyl)-6-Methoxybenzo[b]thiophene], which melting point is on record?
A: The melting point was 114 to 116 °C.

Q: Which melting point does the source give for `COc1ccc(C(=O)c2c(-c3ccc(O)cc3)sc3cc(O)ccc23)cc1` [Example 2, 2-(4-Hydroxyphenyl)-3-(4-Methoxybenzoyl)-6-Hydroxybenzo[b]thiophene] here?
A: Its melting point is 138 to 140 °C.
